The values below come from US9399646B2 (Genentech, Inc., priority 2010, dated 2016).

One assay concerns the target T1, ER-α in MCF-7 cells (Homo sapiens, UniProt P03372).
T1 sequence (P03372 1-595): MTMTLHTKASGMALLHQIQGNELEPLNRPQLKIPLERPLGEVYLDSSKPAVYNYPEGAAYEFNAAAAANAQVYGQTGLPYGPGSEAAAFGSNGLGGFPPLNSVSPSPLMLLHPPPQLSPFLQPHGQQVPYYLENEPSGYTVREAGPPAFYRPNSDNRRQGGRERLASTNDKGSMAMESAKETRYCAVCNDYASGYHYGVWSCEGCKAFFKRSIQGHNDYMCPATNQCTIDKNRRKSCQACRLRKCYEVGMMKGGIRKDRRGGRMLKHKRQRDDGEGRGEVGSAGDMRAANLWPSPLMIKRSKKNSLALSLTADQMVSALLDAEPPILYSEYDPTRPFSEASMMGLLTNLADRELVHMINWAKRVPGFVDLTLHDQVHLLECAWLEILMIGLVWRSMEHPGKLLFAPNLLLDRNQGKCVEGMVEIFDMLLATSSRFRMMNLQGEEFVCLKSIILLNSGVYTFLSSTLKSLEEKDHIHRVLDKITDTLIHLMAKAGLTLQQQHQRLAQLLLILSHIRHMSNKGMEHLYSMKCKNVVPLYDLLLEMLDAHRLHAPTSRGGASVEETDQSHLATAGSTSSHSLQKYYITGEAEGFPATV
Put plainly: Breast cancer cell ER-α in cell western assay (SP1). In kind it is cell-based. Set-up: endogenous in cells; host or cells: MCF-7. The following applies: 4 or 24 hr post compound addition; for Emax: MCF7, SP1 antibody, read-out: ER-α In Cell Western Assay (SP1) Max Response; for DC50: SP1 antibody, read-out: ER-α In Cell Western Assay (SP1) IC50. The essentials: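 Percent remaining ER: SP1 immunofluorescence normalized to DRAQ5 nuclear stain, compared with untreated controls. Treatment lasted 4 or 24 hr across 0.3–0.000003 μM final in MCF-7.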

For the next assay, the system named is MCF-7 cells. Put plainly: Breast cancer cell viability assay (CellTiter-Glo, 5 days). In kind it is cell-based. The settings on record: 5 days' compound exposure; for IC50: Homo sapiens, MCF7, 120 h. The essentials:
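MCF-7 cells, 320 per well in RPMI with 10% FBS and 20 mM HEPES, adhered overnight, then exposed 5 days to an eleven-point semilog dilution (final 0.3-0.000003 μM). CellTiter-Glo luminescence read; % viability = (sample − cell-free background)/(untreated − background) × 100.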

As to `CC/C(=C(/c1ccc(/C=C/C(=O)O)cc1)c1ccc2c(cnn2C(=O)C(C)C)c1)c1ccc(F)cc1Cl` [Compound 404, (E)-3-(4-((E)-2-(2-Chloro-4-fluorophenyl)-1-(1-isobutyryl-1H-indazol-5-yl)but-1-en-1-yl)phenyl)acrylic acid], at ER-α in MCF-7 cells, the Emax was ≥ 40% and the DC50 is ≤ 100 nM. For the same molecule, in the assay with MCF-7 cells, the “MCF7 Viability Assay Max Response” value is given as “++ (++ = a single % value ≧ 40%)” and the IC50 was ≤ 100 nM.

With `CC/C(=C(/c1ccc(/C=C/C(=O)O)cc1)c1ccc2c(cnn2C(=O)C(C)(C)C)c1)c1ccc(F)cc1Cl` [Compound 405, (E)-3-(4-((E)-2-(2-Chloro-4-fluorophenyl)-1-(1-pivaloyl-1H-indazol-5-yl)but-1-en-1-yl)phenyl)acrylic acid], on ER-α in MCF-7 cells, the Emax is ≥ 40% and the DC50 was ≤ 100 nM. In the assay with MCF-7 cells, the “MCF7 Viability Assay Max Response” value is given as “++ (++ = a single % value ≧ 40%)” and the 50% inhibitory concentration (IC50) is ≤ 100 nM.

For the molecule `CCOC(=O)n1ncc2cc(/C(=C(\CC)c3ccc(F)cc3Cl)c3ccc(/C=C/C(=O)O)cc3)ccc21` [Compound 406, (E)-3-(4-((E)-2-(2-Chloro-4-fluorophenyl)-1-(1-(ethoxycarbonyl)-1H-indazol-5-yl)but-1-en-1-yl)phenyl)acrylic acid], at ER-α in MCF-7 cells, the Emax was ≥ 40% and the DC50 is ≤ 100 nM. Also, in the assay with MCF-7 cells, the “MCF7 Viability Assay Max Response” value is listed as “++ (++ = a single % value ≧ 40%)” and the IC50 is ≤ 100 nM.

For the molecule `CC/C(=C(/c1ccc(/C=C/C(=O)NS(C)(=O)=O)cc1)c1ccc2[nH]ncc2c1)c1ccc(F)cc1Cl` [Compound 408, (E)-3-(4-((E)-2-(2-Chloro-4-fluorophenyl)-1-(1H-indazol-5-yl)but-1-en-1-yl)phenyl)-N-(methylsulfonyl)acrylamide], at ER-α in MCF-7 cells, the Emax is ≥ 40% and the DC50 is ≤ 100 nM. In addition, in the assay with MCF-7 cells, the “MCF7 Viability Assay Max Response” value was “++ (++ = a single % value ≧ 40%)” and the IC50 was ≤ 100 nM.

In the case of `CCCS(=O)(=O)NC(=O)/C=C/c1ccc(/C(=C(/CC)c2ccc(F)cc2Cl)c2ccc3[nH]ncc3c2)cc1` [Compound 409, (E)-3-(4-((E)-2-(2-Chloro-4-fluorophenyl)-1-(1H-indazol-5-yl)but-1-en-1-yl)phenyl)-N-(propylsulfonyl)acrylamide], on ER-α in MCF-7 cells, the Emax was ≥ 40% and the DC50 is ≤ 100 nM. Besides, in the assay on MCF-7 cells, the “MCF7 Viability Assay Max Response” value was “++ (++ = a single % value ≧ 40%)” and the IC50 was ≤ 100 nM.

Regarding `CCCCCS(=O)(=O)NC(=O)/C=C/c1ccc(/C(=C(/CC)c2ccc(F)cc2Cl)c2ccc3[nH]ncc3c2)cc1` [Compound 410, (E)-3-(4-((E)-2-(2-Chloro-4-fluorophenyl)-1-(1H-indazol-5-yl)but-1-en-1-yl)phenyl)-N-(pentylsulfonyl)acrylamide], at ER-α in MCF-7 cells, the Emax is ≥ 40% and the DC50 is ≤ 100 nM. In addition, in the assay on MCF-7 cells, the “MCF7 Viability Assay Max Response” value is listed as “++ (++ = a single % value ≧ 40%)” and the IC50 was ≤ 100 nM.

With `CNC(=O)/C=C/c1ccc(/C(=C(\c2ccccc2)C2CCC2)c2ccc3c(cnn3C)c2)cc1` [Compound 411, (E)-3-(4-((E)-2-Cyclobutyl-1-(1-methyl-1H-indazol-5-yl)-2-phenylvinyl)phenyl)-N-methylacrylamide], at ER-α in MCF-7 cells, the Emax was ≥ 40% and the DC50 is ≤ 100 nM. Moreover, in the assay with MCF-7 cells, the “MCF7 Viability Assay Max Response” value is “++ (++ = a single % value ≧ 40%)” and the IC50 was ≤ 100 nM.

For the molecule `CNC(=O)/C=C/c1ccc(/C(=C(\c2ccccc2)C2CCC2)c2ccc3[nH]ncc3c2)cc1` [Compound 412, (E)-3-(4-((E)-2-Cyclobutyl-1-(1H-indazol-5-yl)-2-phenylvinyl)phenyl)-N-methylacrylamide], at ER-α in MCF-7 cells, the Emax is ≥ 40% and the DC50 is ≤ 100 nM. In the assay on MCF-7 cells, the “MCF7 Viability Assay Max Response” value is recorded as “++ (++ = a single % value ≧ 40%)” and the IC50 was ≤ 100 nM.

`O=C(/C=C/c1ccc(/C(=C(\c2ccccc2)C2CCC2)c2ccc3[nH]nc(F)c3c2)cc1)NC1CC1` [Compound 413, (E)-3-(4-((E)-2-Cyclobutyl-1-(3-fluoro-1H-indazol-5-yl)-2-phenylvinyl)phenyl)-N-cyclopropylacrylamide]: on ER-α in MCF-7 cells, the Emax is ≥ 40% and the DC50 is ≤ 100 nM. Further, in the assay on MCF-7 cells, the “MCF7 Viability Assay Max Response” value was “++ (++ = a single % value ≧ 40%)” and the concentration for half-maximal inhibition (IC50) was ≤ 100 nM.

As to `O=C(/C=C/c1ccc(/C(=C(\c2ccccc2)C2CCC2)c2ccc3[nH]nc(F)c3c2)cc1)NCCO` [Compound 414, (E)-3-(4-((E)-2-Cyclobutyl-1-(3-fluoro-1H-indazol-5-yl)-2-phenylvinyl)phenyl)-N-(2-hydroxyethyl)acrylamide], on ER-α in MCF-7 cells, the Emax is ≥ 40% and the DC50 is ≤ 100 nM. Besides, in the assay with MCF-7 cells, the “MCF7 Viability Assay Max Response” value is “++ (++ = a single % value ≧ 40%)” and the IC50 is ≤ 100 nM.

Regarding `O=C(/C=C/c1ccc(/C(=C(\c2ccccc2)C2CCC2)c2ccc3[nH]nc(F)c3c2)cc1)NCC(F)(F)F` [Compound 415, (E)-3-(4-((E)-2-Cyclobutyl-1-(3-fluoro-1H-indazol-5-yl)-2-phenylvinyl)phenyl)-N-(2,2,2-trifluoroethyl)acrylamide], at ER-α in MCF-7 cells, the Emax is ≥ 40% and the DC50 is ≤ 100 nM. In addition, in the assay with MCF-7 cells, the “MCF7 Viability Assay Max Response” value is reported as “++ (++ = a single % value ≧ 40%)” and the IC50 is ≤ 100 nM.

Consider `CC/C(=C(/c1ccc(/C=C/C(=O)NS(C)(=O)=O)cc1)c1ccc2scnc2c1)c1ccc(F)cc1Cl` [Compound 416, (E)-3-(4-((E)-1-(Benzo[d]thiazol-5-yl)-2-(2-chloro-4-fluorophenyl)but-1-en-1-yl)phenyl)-N-(methylsulfonyl)acrylamide], for which, on ER-α in MCF-7 cells, the Emax was ≥ 40% and the DC50 was ≤ 100 nM. In the assay on MCF-7 cells, the “MCF7 Viability Assay Max Response” value is given as “++ (++ = a single % value ≧ 40%)” and the half-maximal inhibitory concentration (IC50) is ≤ 100 nM.

Consider `CC/C(=C(/c1ccc(/C=C/C(N)=O)cc1)c1ccc2[nH]ncc2c1)c1ccc(F)cc1Cl` [Compound 417, (E)-3-(4-((E)-2-(2-Chloro-4-fluorophenyl)-1-(1H-indazol-5-yl)but-1-en-1-yl)phenyl)acrylamide], for which, at ER-α in MCF-7 cells, the Emax was ≥ 40% and the DC50 was ≤ 100 nM. Also, in the assay with MCF-7 cells, the “MCF7 Viability Assay Max Response” value is recorded as “++ (++ = a single % value ≧ 40%)” and the IC50 is ≤ 100 nM.

For the molecule `CC/C(=C(/c1ccc(/C=C/C(=O)NO)cc1)c1ccc2[nH]ncc2c1)c1ccccc1` [Compound 418, (E)-3-(4-((E)-1-(1H-Indazol-5-yl)-2-phenylbut-1-en-1-yl)phenyl)-N-hydroxyacrylamide], at ER-α in MCF-7 cells, the Emax is ≥ 40% and the DC50 is ≤ 100 nM. Moreover, in the assay with MCF-7 cells, the “MCF7 Viability Assay Max Response” value is recorded as “++ (++ = a single % value ≧ 40%)” and the concentration for half-maximal inhibition (IC50) was ≤ 100 nM.

Turning to `CC/C(=C(/c1ccc(/C=C/C(=O)NC(C)C)cc1)c1ccc2[nH]ncc2c1)c1ccccc1` [Compound 419, (E)-3-(4-((E)-1-(1H-Indazol-5-yl)-2-phenylbut-1-en-1-yl)phenyl)-N-isopropylacrylamide], on ER-α in MCF-7 cells, the Emax is ≥ 40% and the DC50 is ≤ 100 nM. Also, in the assay on MCF-7 cells, the “MCF7 Viability Assay Max Response” value is “++ (++ = a single % value ≧ 40%)” and the half-inhibitory concentration (IC50) was ≤ 100 nM.

Regarding `CC/C(=C(/c1ccc(/C=C/C(=O)NC)cc1)c1ccc2[nH]ncc2c1)c1ccc(F)cc1Cl` [Compound 420, (E)-3-(4-((E)-2-(2-Chloro-4-fluorophenyl)-1-(1H-indazol-5-yl)but-1-en-1-yl)phenyl)-N-methylacrylamide], at ER-α in MCF-7 cells, the Emax is ≥ 40% and the DC50 was ≤ 100 nM. In addition, in the assay with MCF-7 cells, the “MCF7 Viability Assay Max Response” value was “++ (++ = a single % value ≧ 40%)” and the 50% inhibitory concentration (IC50) was ≤ 100 nM.

Regarding `CC/C(=C(/c1ccc(/C=C/C(=O)NOC)cc1)c1ccc2[nH]ncc2c1)c1ccc(F)cc1Cl` [Compound 421, (E)-3-(4-((E)-2-(2-Chloro-4-fluorophenyl)-1-(1H-indazol-5-yl)but-1-en-1-yl)phenyl)-N-methoxyacrylamide], on ER-α in MCF-7 cells, the Emax is ≥ 40% and the DC50 is ≤ 100 nM. In the assay with MCF-7 cells, the “MCF7 Viability Assay Max Response” value is on record as “++ (++ = a single % value ≧ 40%)” and the IC50 is ≤ 100 nM.

For `CC/C(=C(/c1ccc(/C=C/C(=O)N(C)OC)cc1)c1ccc2[nH]ncc2c1)c1ccc(F)cc1Cl` [Compound 422, (E)-3-(4-((E)-2-(2-Chloro-4-fluorophenyl)-1-(1H-indazol-5-yl)but-1-en-1-yl)phenyl)-N-methoxy-N-methylacrylamide], on ER-α in MCF-7 cells, the Emax was ≥ 40% and the DC50 was ≤ 100 nM. Besides, in the assay with MCF-7 cells, the “MCF7 Viability Assay Max Response” value is “++ (++ = a single % value ≧ 40%)” and the IC50 was ≤ 100 nM.
